Here are results for 6 molecules from patent US20260206755A1, “COMPOUNDS AND COMPOSITIONS HAVING KNOCK-DOWN OR BLOOD FEED INHIBITION ACTIVITY AGAINST INSECT PESTS” (priority 2017, published 2026).

Structures are written as SMILES. Like-named read-outs stand apart in the source and are kept apart here.

This series concerns Anopheles stephensi. In words: Anopheles stephensi treated well plate contact test: knockdown and mortality. The class given is in vivo. To be noted: for mortality at 0.2 ppm / pest or weed control at 0.2 ppm / mortality at 2 ppm / pest or weed control at 2 ppm / mortality at 20 ppm / pest or weed control at 20 ppm / mortality at 200 ppm / pest or weed control at 200 ppm / mortality at 0.02 ppm / pest or weed control at 0.02 ppm: Anopheles stephensi; for pest or weed control at 0.2 ppm / pest or weed control at 2 ppm / pest or weed control at 20 ppm / pest or weed control at 200 ppm / Knock Down, with TFNA-AM / pest or weed control at 0.02 ppm: knockdown after 1 hour; for pest or weed control at 0.2 ppm / pest or weed control at 2 ppm / pest or weed control at 20 ppm / pest or weed control at 200 ppm / pest or weed control at 0.02 ppm: read-out: Knock Down, without TFNA-AM; for mortality at 200 ppm / pest or weed control at 200 ppm: test compound 200 ppm; for pest or weed control at 200 ppm: adult females. The gist of the method: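 Well surfaces coated with ethanol solution of compound at a defined concentration, alone or with 2 ppm TFNA-AM, then dried. Five non-blood-fed 2–5-day-old adult females per well, fed 10% sucrose; knockdown scored at 1 hour, mortality at 24 and 48 hours, replicate means reported.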

Where [1] appears, read: test compound 0.2 ppm, without TFNA-AM, after 24 hours, read-out: mortality % 24, without TFNA-AM.
[2] abbreviates: test compound 0.2 ppm, without TFNA-AM, after 48 hours, read-out: mortality % 48, without TFNA-AM.
[3] abbreviates: test compound 0.2 ppm, without TFNA-AM.
Setting [4] is: test compound 2 ppm, without TFNA-AM, after 24 hours, read-out: mortality % 24, without TFNA-AM.
Setting [5] is: test compound 2 ppm, without TFNA-AM, after 48 hours, read-out: mortality % 48, without TFNA-AM.
The mark [6] stands for this setting: test compound 2 ppm, without TFNA-AM.
The mark [7] stands for this setting: test compound 20 ppm, without TFNA-AM, after 24 hours, read-out: mortality % 24, without TFNA-AM.
Setting [8] is: test compound 20 ppm, without TFNA-AM, after 48 hours, read-out: mortality % 48, without TFNA-AM.
[9] abbreviates: test compound 20 ppm, without TFNA-AM.
Where [10] appears, read: without TFNA-AM, after 24 hours, read-out: mortality % 24, without TFNA-AM.
The mark [11] stands for this setting: without TFNA-AM, after 48 hours, read-out: mortality % 48, without TFNA-AM.
[12] abbreviates: test compound 0.2 ppm plus 2 ppm TFNA-AM, after 48 hours.
The mark [13] stands for this setting: test compound 0.2 ppm plus 2 ppm TFNA-AM.
The mark [14] stands for this setting: test compound 2 ppm plus 2 ppm TFNA-AM, after 48 hours.
[15] abbreviates: test compound 2 ppm plus 2 ppm TFNA-AM.
Where [16] appears, read: test compound 20 ppm plus 2 ppm TFNA-AM, after 24 hours.
Setting [17] is: test compound 20 ppm plus 2 ppm TFNA-AM, after 48 hours.
Setting [18] is: test compound 20 ppm plus 2 ppm TFNA-AM.
The mark [19] stands for this setting: test compound 200 ppm plus 2 ppm TFNA-AM, after 24 hours.
Setting [20] is: test compound 200 ppm plus 2 ppm TFNA-AM, after 48 hours.
Where [21] appears, read: test compound 200 ppm plus 2 ppm TFNA-AM.
Where [22] appears, read: test compound 0.02 ppm, without TFNA-AM, after 24 hours, read-out: mortality % 24, without TFNA-AM.
Where [23] appears, read: test compound 0.02 ppm, without TFNA-AM, after 48 hours, read-out: mortality % 48, without TFNA-AM.
The mark [24] stands for this setting: test compound 0.02 ppm, without TFNA-AM.
Setting [25] is: test compound 0.02 ppm plus 2 ppm TFNA-AM, after 24 hours.
The mark [26] stands for this setting: test compound 0.02 ppm plus 2 ppm TFNA-AM, after 48 hours.
Setting [27] is: test compound 0.02 ppm plus 2 ppm TFNA-AM.
Setting [28] is: test compound 0.2 ppm plus 2 ppm TFNA-AM, after 24 hours.
Where [29] appears, read: test compound 2 ppm plus 2 ppm TFNA-AM, after 24 hours.
Setting [30] is: 24 h, read-out: mortality % 24, without TFNA-AM.
Setting [31] is: 48 h, read-out: mortality % 48, without TFNA-AM.

Regarding `CN/C(=N/CC1CCOC1)N[N+](=O)[O-]` (stereo not shown) [Dinotefuran], the mortality at 0.2 ppm runs as follows: under setting [1], 0%; under setting [2], 0%. The pest or weed control at 0.2 ppm under setting [3] is 0%. The mortality at 2 ppm reads like this: under setting [4], 40%; under setting [5], 40%. For the same molecule, the pest or weed control at 2 ppm under setting [6] is 0%. Besides, the mortality at 20 ppm runs as follows: under setting [7], 40%; under setting [8], 80%. In addition, under setting [9], the pest or weed control at 20 ppm came to 0%. The mortality at 200 ppm by setting is: under setting [10], 100%; under setting [11], 100%. The pest or weed control at 200 ppm (without TFNA-AM) came out at 40%. In addition, the “mortality % 48, with TFNA-AM” value runs as follows: under setting [12], 60%; under setting [14], 60%; under setting [17], 100%; under setting [20], 100%. Further, the “Knock Down, with TFNA-AM” value under setting [13] is given as 100%; the “Knock Down, with TFNA-AM” value under setting [15] is 100%; the “Knock Down, with TFNA-AM” value under setting [18] amounted to 100%; the “Knock Down, with TFNA-AM” value under setting [21] was 100%. Further, the “mortality % 24, with TFNA-AM” value amounted to 100% under setting [16] and 100% under setting [19].
Consider `CCOc1ccc(C(C)(C)COCc2cccc(Oc3ccccc3)c2)cc1` [Etofenprox], for which the mortality at 0.02 ppm stood at 0% under setting [22] and 0% under setting [23]. Also, the pest or weed control at 0.02 ppm under setting [24] came out at 0%. Also, the mortality at 0.2 ppm came to 20% under setting [1] and 20% under setting [2]. Moreover, the pest or weed control at 0.2 ppm under setting [3] is 0%. Further, the mortality at 2 ppm runs as follows: under setting [4], 80%; under setting [5], 80%. The pest or weed control at 2 ppm under setting [6] was found to be 0%. Moreover, the mortality at 20 ppm is, setting by setting: under setting [7], 100%; under setting [8], 100%. In addition, the pest or weed control at 20 ppm under setting [9] stood at 60%. Besides, the “mortality % 24, with TFNA-AM” value reads like this: under setting [25], 60%; under setting [28], 100%; under setting [29], 100%; under setting [16], 100%. The “mortality % 48, with TFNA-AM” value is, setting by setting: under setting [26], 60%; under setting [12], 100%; under setting [14], 100%; under setting [17], 100%. Also, the “Knock Down, with TFNA-AM” value by setting is: under setting [27], 100%; under setting [13], 100%; under setting [15], 100%; under setting [18], 100%.
Take `CCOc1cc(C(C)(C)C)ccc1C1COC(c2c(F)cccc2F)=N1` (stereo not shown) [Etoxazole]: the mortality at 0.2 ppm runs as follows: under setting [1], 0%; under setting [2], 0%. Moreover, the pest or weed control at 0.2 ppm under setting [3] came out at 0%. Also, the mortality at 2 ppm runs as follows: under setting [4], 0%; under setting [5], 0%. Besides, the pest or weed control at 2 ppm under setting [6] was found to be 0%. Further, the mortality at 20 ppm worked out at 0% under setting [7] and 0% under setting [8]. In addition, under setting [9], the pest or weed control at 20 ppm is 0%. For the same molecule, the mortality at 200 ppm by setting is: under setting [10], 0%; under setting [11], 0%. Further, for the setting “without TFNA-AM”, the pest or weed control at 200 ppm amounted to 0%. Moreover, the “mortality % 24, with TFNA-AM” value reads like this: under setting [28], 40%; under setting [29], 60%; under setting [16], 60%; under setting [19], 80%. Besides, the “mortality % 48, with TFNA-AM” value by setting is: under setting [12], 40%; under setting [14], 40%; under setting [17], 60%; under setting [20], 80%. The “Knock Down, with TFNA-AM” value is, setting by setting: under setting [13], 100%; under setting [15], 100%; under setting [18], 100%; under setting [21], 100%.
Take `COP(=S)(OC)Oc1ccc([N+](=O)[O-])c(C)c1` [Fenitrothion]: the mortality at 0.02 ppm under setting [30] amounted to 0% and the mortality at 0.02 ppm under setting [31] was determined as 0%. For the same molecule, the mortality at 0.2 ppm by setting is: under setting [30], 20%; under setting [31], 100%. Also, the mortality at 2 ppm under setting [30] came out at 100% and the mortality at 2 ppm under setting [31] worked out at 100%. Further, the mortality at 20 ppm under setting [30] was found to be 100% and the mortality at 20 ppm under setting [31] stood at 100%. Moreover, under setting [24], the pest or weed control at 0.02 ppm was 0%. Under setting [3], the pest or weed control at 0.2 ppm worked out at 0%. Further, the pest or weed control at 2 ppm under setting [6] is 0%. Besides, the pest or weed control at 20 ppm under setting [9] was determined as 0%. The “mortality % 24, with TFNA-AM” value under setting [25] worked out at 40%; the “mortality % 24, with TFNA-AM” value under setting [28] is recorded as 80%; the “mortality % 24, with TFNA-AM” value under setting [29] is given as 100%; the “mortality % 24, with TFNA-AM” value under setting [16] was 100%. Moreover, the “mortality % 48, with TFNA-AM” value is, setting by setting: under setting [26], 40%; under setting [12], 100%; under setting [14], 100%; under setting [17], 100%. The “Knock Down, with TFNA-AM” value under setting [27] was 100%; the “Knock Down, with TFNA-AM” value under setting [13] amounted to 100%; the “Knock Down, with TFNA-AM” value under setting [15] is 100%; the “Knock Down, with TFNA-AM” value under setting [18] came out at 100%.
In the case of `CCOC(=O)NCCOc1ccc(Oc2ccccc2)cc1` [Fenoxycarb], the mortality at 0.2 ppm turned out to be 0% under setting [1] and 0% under setting [2]. Moreover, the pest or weed control at 0.2 ppm under setting [3] was found to be 0%. Moreover, the mortality at 2 ppm came out at 0% under setting [4] and 0% under setting [5]. Further, the pest or weed control at 2 ppm under setting [6] came out at 0%. The mortality at 20 ppm under setting [7] amounted to 0% and the mortality at 20 ppm under setting [8] came to 0%. For the same molecule, under setting [9], the pest or weed control at 20 ppm is 20%. Besides, the mortality at 200 ppm runs as follows: under setting [10], 0%; under setting [11], 0%. Besides, under “without TFNA-AM”, the pest or weed control at 200 ppm turned out to be 20%. For the same molecule, the “mortality % 24, with TFNA-AM” value runs as follows: under setting [28], 40%; under setting [29], 80%; under setting [16], 80%; under setting [19], 80%. Moreover, the “mortality % 48, with TFNA-AM” value is, setting by setting: under setting [12], 40%; under setting [14], 80%; under setting [17], 80%; under setting [20], 80%. For the same molecule, the “Knock Down, with TFNA-AM” value reads like this: under setting [13], 100%; under setting [15], 100%; under setting [18], 100%; under setting [21], 100%.
Regarding `N#Cc1nn(-c2c(Cl)cc(C(F)(F)F)cc2Cl)c(N)c1[S+]([O-])C(F)(F)F` (stereo not shown) [Fipronil], the mortality at 0.02 ppm was 0% under setting [22] and 20% under setting [23]. Also, the pest or weed control at 0.02 ppm under setting [24] came to 0%. Besides, the mortality at 0.2 ppm runs as follows: under setting [1], 20%; under setting [2], 40%. Also, the pest or weed control at 0.2 ppm under setting [3] was found to be 0%. The mortality at 2 ppm is 40% under setting [4] and 100% under setting [5]. Besides, under setting [6], the pest or weed control at 2 ppm came out at 0%. For the same molecule, the mortality at 20 ppm was 100% under setting [7] and 100% under setting [8]. Further, the pest or weed control at 20 ppm under setting [9] turned out to be 0%. The “mortality % 24, with TFNA-AM” value reads like this: under setting [25], 0%; under setting [28], 60%; under setting [29], 80%; under setting [16], 100%. The “mortality % 48, with TFNA-AM” value reads like this: under setting [26], 0%; under setting [12], 100%; under setting [14], 100%; under setting [17], 100%. Further, the “Knock Down, with TFNA-AM” value runs as follows: under setting [27], 100%; under setting [13], 100%; under setting [15], 100%; under setting [18], 100%.
